For the test, the target named is Human TASK-1 channels (Homo sapiens (Human), UniProt O14649). Kind of test: Determination of the activity on the TASK-1 channel in Xenopus oocytes (two-microelectrode voltage clamp). The class given is cell-based. As to conditions: for IC50: human TASK-1 expressed in Xenopus oocytes, room temperature, read-out: IC50 value for TASK-1 inhibition. How it is done: Determination of the activity on the TASK-1 channel in Xenopus oocytes
Human TASK-1 channels were expressed in Xenopus oocytes. For this purpose, oocytes were isolated from Xenopus laevis and defoliculated. Subsequently, TASK-1-encoding RNA synthesized in vitro was injected into the oocytes. After two days of TASK-1 protein expression, TASK-1 currents were measured by two-microelectrode voltage clamp. Data were acquired and analyzed using a TEC-10cx amplifier (NPI Electronic, Tamm, Germany) connected to an ITC-16 interface (Instrutech Corp., Long Island, USA) and Pulse software (HEKA Elektronik, Lambrecht, Germany). Oocytes were clamped to −90 mV and TASK-1 mediated currents were measured during 500 ms voltage pulses to 40 mV. Oocytes were continuously superfused with ND96 buffer containing 96 mM sodium chloride, 2 mM potassium chloride, 1.8 mM calcium chloride, 1 mM magnesium chloride, 5 mM 4-(2-hydroxyethyl)-piperazine-1-ethanesulfonic acid (HEPES; pH adjusted to 7.4 with sodium hydroxide). All experiments were performed at room temperature. Test compounds were consecutively added to the bath solution at rising concentrations. Compound effects were calculated as the percentage inhibition of TASK-1 control current before compound addition. IC50 values were obtained by fitting the data to the general dose-response equation.

Human TASK-1 channels, sequence (O14649 whole entry): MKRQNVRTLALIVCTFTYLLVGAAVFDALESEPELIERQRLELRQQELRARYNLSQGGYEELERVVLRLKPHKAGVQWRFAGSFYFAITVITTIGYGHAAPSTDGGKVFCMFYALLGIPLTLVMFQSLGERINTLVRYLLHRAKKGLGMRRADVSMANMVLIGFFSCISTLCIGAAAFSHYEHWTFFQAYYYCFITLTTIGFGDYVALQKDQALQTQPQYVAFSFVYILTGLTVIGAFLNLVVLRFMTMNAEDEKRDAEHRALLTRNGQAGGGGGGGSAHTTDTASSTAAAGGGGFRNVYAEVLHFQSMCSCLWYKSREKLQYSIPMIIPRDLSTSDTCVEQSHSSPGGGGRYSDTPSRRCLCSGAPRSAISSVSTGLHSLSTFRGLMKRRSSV

On to “3,4-Dihydro-1H-pyrrolo[2,1-c][1,4]oxazine-6,8-dicarboxylic acid 6-[(1H-indol-6-ylmethyl)-amide] 8-[((R)-1-phenyl-propyl)-amide] [16je]”, for which, where the note is “compound concentration 5 μM”, the “TASK-1 inhibition [%] at 5 μM” value worked out at 91%.
Take “3,4-Dihydro-1H-pyrrolo[2,1-c][1,4]oxazine-6,8-dicarboxylic acid 6-{[(R)-1-(4-fluoro-phenyl)-ethyl]-amide} 8-{[(S)-1-(5-methoxy-pyrazin-2-yl)-propyl]-amide} [16dv]”: the IC50 (as a rule, the concentration that inhibits the measured activity by half) was determined as 190 nM.
On the same count and under the same terms, to “5,6,7,8-Tetrahydro-indolizine-1,3-dicarboxylic acid 3-[(5-fluoro-pyridin-3-ylmethyl)-amide] 1-[((R)-1-phenyl-propyl)-amide] [16nb]” belongs 460 nM; to “6-((S)-2-Methyl-pyrrolidine-1-carbonyl)-3(4-dihydro-1H-pyrrolo[2,1-c][1,4]oxazine-8-carboxylic acid [(R)-1-(2,2-difluoro-benzo[1,3]dioxol-5-yl)-propyl]-amide [16bz]”, 200 nM.
The same measure, in the same setting: to `C[C@H]1CCCN1C(=O)c1cc(C(=O)N[C@H]2CCc3nc(C(F)(F)F)ccc32)c2n1CCOC2` (racemic) [16cu, 6-((S)-2-Methyl-pyrrolidine-1-carbonyl)-3,4-dihydro-1H-pyrrolo[2,1-c][1,4]oxazine-8-carboxylic acid ((S)-2-trifluoromethyl-6,7-dihydro-5H-[1]pyrindin-5-yl)-amide] belongs 9000 nM; to `C[C@H]1CCCN1C(=O)c1cc(C(=O)N[C@@H]2CCc3nc(C(F)(F)F)ccc32)c2n1CCOC2` (racemic) [16cv, 6-((S)-2-Methyl-pyrrolidine-1-carbonyl)-3,4-dihydro-1H-pyrrolo[2,1-c][1,4]oxazine-8-carboxylic acid ((R)-2-trifluoromethyl-6,7-dihydro-5H-[1]pyrindin-5-yl)-amide], 900 nM; to `C[C@H](NC(=O)c1cc(C(=O)N[C@H](C)c2ccc(F)cc2)n2c1COCC2)c1ncccn1` (racemic) [16dx, 3,4-Dihydro-1H-pyrrolo[2,1-c][1,4]oxazine-6,8-dicarboxylic acid 6-{[(R)-1-(4-fluoro-phenyl)-ethyl]-amide} 8-[((S)-1-pyrimidin-2-yl-ethyl)-amide]], 1200 nM.
On the same count and under the same terms, to `C[C@@H](NC(=O)c1cc(C(=O)N[C@H](C)c2ncccn2)c2n1CCOC2)c1ccc(F)cc1` (racemic) [16dy, 3,4-Dihydro-1H-pyrrolo[2,1-c][1,4]oxazine-6,8-dicarboxylic acid 6-{[(R)-1-(4-fluoro-phenyl)-ethyl]-amide} 8-[((R)-1-pyrimidin-2-yl-ethyl)-amide]] belongs 1500 nM; to `CC[C@H]1CCCN1C(=O)c1cc(C(=O)N[C@H](CC)c2ccccc2)c2n1CCOC2` (racemic) [16fc, 6-((S)-2-Ethyl-pyrrolidine-1-carbonyl)-3,4-dihydro-1H-pyrrolo[2,1-c][1,4]oxazine-8-carboxylic acid ((R)-1-phenyl-propyl)-amide], 25 nM.
With `CC[C@@H]1CCCN1C(=O)c1cc(C(=O)N[C@H](CC)c2ccccc2)c2n1CCOC2` (racemic) [16fd, 6-((R)-2-Ethyl-pyrrolidine-1-carbonyl)-3,4-dihydro-1H-pyrrolo[2,1-c][1,4]oxazine-8-carboxylic acid ((R)-1-phenyl-propyl)-amide], the IC50 is 730 nM.
`CC[C@@H](NC(=O)c1cc(C(=O)NC(C)c2ncccn2)c2n1CCOC2)c1ccccc1` (mixture of isomers) [16jz, 3,4-Dihydro-1H-pyrrolo[2,1-c][1,4]oxazine-6,8-dicarboxylic acid 6-[((R)-1-phenyl-propyl)-amide] 8-[(1-pyrimidin-2-yl-ethyl)-amide]]: the IC50 came out at 300 nM.
On the same count and under the same terms, to `CC[C@@H](NC(=O)c1cc(C(=O)NC(C)c2ncccn2)c2n1CCOC2)c1ccccc1` (mixture of isomers) [16ka, 3,4-Dihydro-1H-pyrrolo[2,1-c][1,4]oxazine-6,8-dicarboxylic acid 6-[((R)-1-phenyl-propyl)-amide] 8-[(1-pyrimidin-2-yl-ethyl)-amide]] belongs 460 nM; to `CC(C)[C@@H](NC(=O)c1cc(C(=O)N[C@@H](C)c2ncccn2)c2n1CCOC2)c1ccc(F)cc1` (racemic) [16lr, 3,4-Dihydro-1H-pyrrolo[2,1-c][1,4]oxazine-6,8-dicarboxylic acid 6-{[(R)-1-(4-fluoro-phenyl)-2-methyl-propyl]-amide} 8-[((S)-1-pyrimidin-2-yl-ethyl)-amide]], 360 nM.
Consider `CC[C@@H](NC(=O)c1cc(C(=O)N[C@H](CC)c2nccs2)n2c1COCC2)c1ccc(C(F)(F)F)nc1` (racemic) [16pd, 3,4-Dihydro-1H-pyrrolo[2,1-c][1,4]oxazine-6,8-dicarboxylic acid 6-[((R)-1-thiazol-2-yl-propyl)-amide] 8-{[(R)-1-(6-trifluoromethyl-pyridin-3-yl)-propyl]-amide}], for which the inhibition – broadly, how much of the control response was suppressed – at 5 µM (compound concentration 5 μM) was found to be 82%.
For the compound `CCC(NC(=O)c1cc(C(=O)N[C@H](CC)c2ccccc2)c2n1CCOC2)c1cnc(OC)nc1` (single isomer, unassigned) [16hu], the IC50 was 620 nM.
The same measure, in the same setting: to `CC[C@@H](NC(=O)c1cc(C(=O)NC(C)c2cnccn2)n2c1COCC2)c1ccccc1` (single isomer, unassigned) [16ie] belongs 260 nM; to `CC(NC(=O)c1cc(C(=O)N[C@@H](c2ccc(F)cc2)C(C)C)n2c1COCC2)c1cnccn1` (single isomer, unassigned) [16lp], 550 nM; to `CC[C@@H](NC(=O)c1cc(C(=O)NC(C)c2cnccn2)c2n1CCOC2)c1ccc(F)cc1F` (single isomer, unassigned) [16pk], 190 nM.
On the same count and under the same terms, to `CC[C@@H](NC(=O)c1cc(C(=O)N2CCC[C@@H]2C)n2c1COCC2)c1ccccc1` [16a, 6-((S)-2-Methyl-pyrrolidine-1-carbonyl)-3,4-dihydro-1H-pyrrolo[2,1-c][1,4]oxazine-8-carboxylic acid ((R)-1-phenyl-propyl)-amide] belongs 69 nM; to `CC[C@@H](NC(=O)c1cc(C(=O)N2CCC[C@@H]2C)n2c1COCC2)c1ccc(C#N)nc1` [16aa, 6-((S)-2-Methyl-pyrrolidine-1-carbonyl)-3,4-dihydro-1H-pyrrolo[2,1-c][1,4]oxazine-8-carboxylic acid [(R)-1-(6-cyano-pyridin-3-yl)-propyl]-amide], 2400 nM.
Still for that read-out and setting: to `CC[C@@H](NC(=O)c1cc(C(=O)N2CCC[C@@H]2C)n2c1COCC2)c1cccc(O)c1` [16ab, 6-((S)-2-Methyl-pyrrolidine-1-carbonyl)-3,4-dihydro-1H-pyrrolo[2,1-c][1,4]oxazine-8-carboxylic acid [(R)-1-(3-hydroxy-phenyl)-propyl]-amide] belongs 2600 nM.
Turning to `CCC(NC(=O)c1cc(C(=O)N2CCC[C@@H]2C)n2c1COCC2)c1nccs1` (stereo partly drawn) [16ae, 6-((S)-2-Methyl-pyrrolidine-1-carbonyl)-3,4-dihydro-1H-pyrroIo[2,1-c][1,4]oxazine-8-carboxylic acid (1-thiazol-2-yl-propyl)-amide], the IC50 stood at 670 nM.
`C[C@H]1CCCN1C(=O)c1cc(C(=O)NCc2c(F)cc(F)cc2F)c2n1CCOC2` [16af, 6-((S)-2-Methyl-pyrrolidine-1-carbonyl)-3,4-dihydro-1H-pyrrolo[2,1-c][1,4]oxazine-8-carboxylic acid 2,4,6-trifluoro-benzylamide]: for the setting “compound concentration 5 μM”, the inhibition at 5 µM came out at 78%.
